Measurements from ChEMBL document CHEMBL3813616, “Discovery of novel 7-azaindoles as PDK1 inhibitors” (Bioorg Med Chem Lett, 2016).

Assays:
[1] = target: Serine/threonine-protein kinase PAK 6 (Homo sapiens) (UniProt Q9NQU5); assay: Inhibition of human PAK6 (2 to 681 residues) assessed as enzyme activity at 1 uM using 33P ATP by radioactive filter binding assay; set-up: scale not given: the % may be the effect or the level left
[2] = target: Dual specificity tyrosine-phosphorylation-regulated kinase 1A (Homo sapiens) (UniProt Q13627); assay: Inhibition of human DYRK1A (1 to 502 residues) assessed as enzyme activity at 1 uM using 33P ATP by radioactive filter binding assay; set-up: scale not given: the % may be the effect or the level left
[3] = target: Serine/threonine-protein kinase N2 (Homo sapiens) (UniProt Q16513); assay: Inhibition of human PRK2 (501 to 984 residues) assessed as enzyme activity at 1 uM using 33P ATP by radioactive filter binding assay; set-up: scale not given: the % may be the effect or the level left
Serine/threonine-protein kinase N2 (Homo sapiens), sequence (Q16513 whole entry, looked up, the tested form may be a part): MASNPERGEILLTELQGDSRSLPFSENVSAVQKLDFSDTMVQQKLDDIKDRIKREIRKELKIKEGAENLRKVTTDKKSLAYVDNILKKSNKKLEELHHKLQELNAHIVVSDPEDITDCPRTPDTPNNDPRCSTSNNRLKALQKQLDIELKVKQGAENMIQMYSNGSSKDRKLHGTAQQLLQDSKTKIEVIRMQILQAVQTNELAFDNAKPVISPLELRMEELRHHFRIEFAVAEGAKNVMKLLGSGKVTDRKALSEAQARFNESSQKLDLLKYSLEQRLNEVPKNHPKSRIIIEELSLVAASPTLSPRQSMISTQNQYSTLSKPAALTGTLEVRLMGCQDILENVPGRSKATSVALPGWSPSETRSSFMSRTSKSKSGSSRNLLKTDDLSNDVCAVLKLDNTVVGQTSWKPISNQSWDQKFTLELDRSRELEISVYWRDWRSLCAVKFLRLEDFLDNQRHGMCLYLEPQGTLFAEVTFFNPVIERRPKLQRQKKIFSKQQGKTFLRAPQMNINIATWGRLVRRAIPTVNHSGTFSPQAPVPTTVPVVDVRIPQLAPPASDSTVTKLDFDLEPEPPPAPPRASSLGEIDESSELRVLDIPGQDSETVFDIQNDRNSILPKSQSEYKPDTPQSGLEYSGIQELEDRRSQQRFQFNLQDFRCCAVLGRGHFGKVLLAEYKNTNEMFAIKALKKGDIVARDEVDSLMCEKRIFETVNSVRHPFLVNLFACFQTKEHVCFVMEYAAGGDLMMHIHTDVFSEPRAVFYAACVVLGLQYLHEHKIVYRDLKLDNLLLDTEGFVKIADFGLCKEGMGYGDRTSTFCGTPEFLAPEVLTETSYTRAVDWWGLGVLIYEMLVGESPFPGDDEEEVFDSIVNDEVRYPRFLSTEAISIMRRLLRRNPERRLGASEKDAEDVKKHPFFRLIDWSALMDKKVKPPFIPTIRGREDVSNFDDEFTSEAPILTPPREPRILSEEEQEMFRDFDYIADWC

[4] = target: Serine/threonine-protein kinase Nek6 (Homo sapiens) (UniProt Q9HC98); assay: Inhibition of human NEK6 (8 to 313 residues) assessed as enzyme activity at 1 uM using 33P ATP by radioactive filter binding assay; set-up: scale not given: the % may be the effect or the level left
Serine/threonine-protein kinase Nek6 (Homo sapiens), sequence (Q9HC98 whole entry, the tested form may be a part): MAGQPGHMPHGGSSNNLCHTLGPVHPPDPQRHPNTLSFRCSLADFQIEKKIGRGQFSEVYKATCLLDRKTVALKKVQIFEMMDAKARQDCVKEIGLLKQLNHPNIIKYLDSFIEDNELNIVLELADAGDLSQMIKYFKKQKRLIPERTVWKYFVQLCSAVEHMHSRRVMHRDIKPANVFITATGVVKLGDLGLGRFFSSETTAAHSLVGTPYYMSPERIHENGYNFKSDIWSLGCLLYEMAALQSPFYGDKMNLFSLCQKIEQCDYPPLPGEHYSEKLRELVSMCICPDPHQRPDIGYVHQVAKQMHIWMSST

[5] = target: T1, Eukaryotic elongation factor 2 kinase (Homo sapiens) (UniProt O00418); assay: Inhibition of human EF2K (2 to 725 residues) assessed as enzyme activity at 1 uM using 33P ATP by radioactive filter binding assay; set-up: scale not given: the % may be the effect or the level left
T1 sequence (whole entry): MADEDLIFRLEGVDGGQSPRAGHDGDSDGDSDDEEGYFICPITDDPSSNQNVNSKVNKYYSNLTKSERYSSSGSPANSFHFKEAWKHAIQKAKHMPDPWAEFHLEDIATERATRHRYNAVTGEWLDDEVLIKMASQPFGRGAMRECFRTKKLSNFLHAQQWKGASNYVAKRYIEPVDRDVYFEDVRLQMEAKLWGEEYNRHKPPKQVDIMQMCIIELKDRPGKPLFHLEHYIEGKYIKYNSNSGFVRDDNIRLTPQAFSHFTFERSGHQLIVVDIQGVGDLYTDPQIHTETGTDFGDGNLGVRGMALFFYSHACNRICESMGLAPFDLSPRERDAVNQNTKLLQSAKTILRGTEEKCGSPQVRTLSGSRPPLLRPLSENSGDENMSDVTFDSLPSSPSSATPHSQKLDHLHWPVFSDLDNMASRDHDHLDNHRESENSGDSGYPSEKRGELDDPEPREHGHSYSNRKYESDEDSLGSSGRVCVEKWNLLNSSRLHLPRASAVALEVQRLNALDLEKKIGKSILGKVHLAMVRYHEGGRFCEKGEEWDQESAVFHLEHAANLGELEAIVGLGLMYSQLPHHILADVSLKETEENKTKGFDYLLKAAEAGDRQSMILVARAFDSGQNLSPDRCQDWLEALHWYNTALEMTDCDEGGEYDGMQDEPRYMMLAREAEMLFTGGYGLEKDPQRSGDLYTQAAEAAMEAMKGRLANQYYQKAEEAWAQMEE

[6] = target: T2, Mitogen-activated protein kinase 12 (Homo sapiens) (UniProt P53778); assay: Inhibition of SAPK3 (unknown origin) assessed as enzyme activity at 1 uM using 33P ATP by radioactive filter binding assay; set-up: scale not given: the % may be the effect or the level left
T2 sequence (whole entry): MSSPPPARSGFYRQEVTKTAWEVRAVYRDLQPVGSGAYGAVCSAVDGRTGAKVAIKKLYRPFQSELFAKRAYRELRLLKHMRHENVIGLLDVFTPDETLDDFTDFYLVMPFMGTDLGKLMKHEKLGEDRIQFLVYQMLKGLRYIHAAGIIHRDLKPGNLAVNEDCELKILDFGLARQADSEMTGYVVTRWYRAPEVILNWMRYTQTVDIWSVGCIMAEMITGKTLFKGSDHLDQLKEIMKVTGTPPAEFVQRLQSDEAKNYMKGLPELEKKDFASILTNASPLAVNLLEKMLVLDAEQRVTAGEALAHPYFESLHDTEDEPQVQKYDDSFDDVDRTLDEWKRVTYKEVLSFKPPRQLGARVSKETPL

[7] = target: Rho-associated protein kinase 2 (Rattus norvegicus) (UniProt Q62868); assay: Inhibition of rat ROCK2 (2 to 543 residues) assessed as enzyme activity at 1 uM using 33P ATP by radioactive filter binding assay; set-up: scale not given: the % may be the effect or the level left
Rho-associated protein kinase 2 (Rattus norvegicus), sequence (Q62868 whole entry, looked up, the tested form may be a part): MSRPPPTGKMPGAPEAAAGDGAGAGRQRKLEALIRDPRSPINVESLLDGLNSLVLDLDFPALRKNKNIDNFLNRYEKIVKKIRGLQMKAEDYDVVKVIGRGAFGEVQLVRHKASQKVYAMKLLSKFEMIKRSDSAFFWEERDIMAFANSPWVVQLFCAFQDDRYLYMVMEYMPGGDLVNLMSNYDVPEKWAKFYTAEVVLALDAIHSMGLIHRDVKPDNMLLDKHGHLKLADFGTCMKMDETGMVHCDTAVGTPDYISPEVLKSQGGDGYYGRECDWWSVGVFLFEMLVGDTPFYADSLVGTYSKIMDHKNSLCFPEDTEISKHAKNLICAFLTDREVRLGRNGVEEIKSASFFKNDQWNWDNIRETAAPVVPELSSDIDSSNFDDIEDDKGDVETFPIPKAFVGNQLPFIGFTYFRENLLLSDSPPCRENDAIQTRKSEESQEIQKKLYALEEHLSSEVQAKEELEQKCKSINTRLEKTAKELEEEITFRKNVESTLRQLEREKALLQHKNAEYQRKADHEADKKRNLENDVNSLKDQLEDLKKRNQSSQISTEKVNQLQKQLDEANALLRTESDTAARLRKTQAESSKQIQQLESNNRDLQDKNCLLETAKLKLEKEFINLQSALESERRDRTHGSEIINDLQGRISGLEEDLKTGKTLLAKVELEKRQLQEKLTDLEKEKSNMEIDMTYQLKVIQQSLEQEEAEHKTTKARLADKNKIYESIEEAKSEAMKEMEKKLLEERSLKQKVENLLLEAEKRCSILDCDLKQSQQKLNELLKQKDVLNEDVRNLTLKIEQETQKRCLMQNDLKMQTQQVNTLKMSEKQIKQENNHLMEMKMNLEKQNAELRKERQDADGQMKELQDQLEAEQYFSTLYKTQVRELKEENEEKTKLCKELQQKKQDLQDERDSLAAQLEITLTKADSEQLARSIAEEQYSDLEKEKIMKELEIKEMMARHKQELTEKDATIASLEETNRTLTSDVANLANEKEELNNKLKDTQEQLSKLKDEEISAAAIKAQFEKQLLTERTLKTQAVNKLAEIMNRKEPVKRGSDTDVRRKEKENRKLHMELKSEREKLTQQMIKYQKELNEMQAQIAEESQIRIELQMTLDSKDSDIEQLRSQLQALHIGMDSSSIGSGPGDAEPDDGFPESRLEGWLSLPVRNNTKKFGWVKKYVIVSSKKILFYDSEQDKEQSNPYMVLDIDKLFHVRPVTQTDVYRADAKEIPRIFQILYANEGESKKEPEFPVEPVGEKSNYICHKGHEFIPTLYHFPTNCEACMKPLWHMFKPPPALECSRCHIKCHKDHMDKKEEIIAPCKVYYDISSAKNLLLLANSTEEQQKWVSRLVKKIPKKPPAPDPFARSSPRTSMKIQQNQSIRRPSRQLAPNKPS

[8] = target: T3, 3-phosphoinositide-dependent protein kinase 1 (Homo sapiens, UniProt O15530); assay: Inhibition of human His6-tagged PDK1 using biotinylated PDKtide as substrate after 60 mins by topcount method
T3 sequence (O15530 whole entry): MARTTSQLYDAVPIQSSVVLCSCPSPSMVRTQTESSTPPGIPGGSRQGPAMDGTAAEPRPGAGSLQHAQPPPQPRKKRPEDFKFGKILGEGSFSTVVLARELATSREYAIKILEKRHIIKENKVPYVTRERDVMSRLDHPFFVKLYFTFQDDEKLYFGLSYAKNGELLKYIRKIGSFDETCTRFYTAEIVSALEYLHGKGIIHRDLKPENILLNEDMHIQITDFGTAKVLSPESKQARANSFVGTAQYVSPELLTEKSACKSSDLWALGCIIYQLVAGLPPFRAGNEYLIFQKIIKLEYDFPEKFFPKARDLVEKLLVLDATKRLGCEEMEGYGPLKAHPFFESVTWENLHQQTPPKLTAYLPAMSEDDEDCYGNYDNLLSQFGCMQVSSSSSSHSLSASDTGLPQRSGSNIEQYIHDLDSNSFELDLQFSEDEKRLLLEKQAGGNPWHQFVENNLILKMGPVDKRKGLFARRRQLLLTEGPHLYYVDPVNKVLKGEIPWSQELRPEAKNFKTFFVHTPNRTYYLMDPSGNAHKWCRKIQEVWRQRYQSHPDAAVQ

[9] = target: Homeodomain-interacting protein kinase 2 (Homo sapiens) (UniProt Q9H2X6); assay: Inhibition of human HIPK2 (165 to 564 residues) assessed as enzyme activity at 1 uM using 33P ATP by radioactive filter binding assay; set-up: scale not given: the % may be the effect or the level left
Homeodomain-interacting protein kinase 2 (Homo sapiens), sequence (Q9H2X6 whole entry, looked up, the tested form may be a part): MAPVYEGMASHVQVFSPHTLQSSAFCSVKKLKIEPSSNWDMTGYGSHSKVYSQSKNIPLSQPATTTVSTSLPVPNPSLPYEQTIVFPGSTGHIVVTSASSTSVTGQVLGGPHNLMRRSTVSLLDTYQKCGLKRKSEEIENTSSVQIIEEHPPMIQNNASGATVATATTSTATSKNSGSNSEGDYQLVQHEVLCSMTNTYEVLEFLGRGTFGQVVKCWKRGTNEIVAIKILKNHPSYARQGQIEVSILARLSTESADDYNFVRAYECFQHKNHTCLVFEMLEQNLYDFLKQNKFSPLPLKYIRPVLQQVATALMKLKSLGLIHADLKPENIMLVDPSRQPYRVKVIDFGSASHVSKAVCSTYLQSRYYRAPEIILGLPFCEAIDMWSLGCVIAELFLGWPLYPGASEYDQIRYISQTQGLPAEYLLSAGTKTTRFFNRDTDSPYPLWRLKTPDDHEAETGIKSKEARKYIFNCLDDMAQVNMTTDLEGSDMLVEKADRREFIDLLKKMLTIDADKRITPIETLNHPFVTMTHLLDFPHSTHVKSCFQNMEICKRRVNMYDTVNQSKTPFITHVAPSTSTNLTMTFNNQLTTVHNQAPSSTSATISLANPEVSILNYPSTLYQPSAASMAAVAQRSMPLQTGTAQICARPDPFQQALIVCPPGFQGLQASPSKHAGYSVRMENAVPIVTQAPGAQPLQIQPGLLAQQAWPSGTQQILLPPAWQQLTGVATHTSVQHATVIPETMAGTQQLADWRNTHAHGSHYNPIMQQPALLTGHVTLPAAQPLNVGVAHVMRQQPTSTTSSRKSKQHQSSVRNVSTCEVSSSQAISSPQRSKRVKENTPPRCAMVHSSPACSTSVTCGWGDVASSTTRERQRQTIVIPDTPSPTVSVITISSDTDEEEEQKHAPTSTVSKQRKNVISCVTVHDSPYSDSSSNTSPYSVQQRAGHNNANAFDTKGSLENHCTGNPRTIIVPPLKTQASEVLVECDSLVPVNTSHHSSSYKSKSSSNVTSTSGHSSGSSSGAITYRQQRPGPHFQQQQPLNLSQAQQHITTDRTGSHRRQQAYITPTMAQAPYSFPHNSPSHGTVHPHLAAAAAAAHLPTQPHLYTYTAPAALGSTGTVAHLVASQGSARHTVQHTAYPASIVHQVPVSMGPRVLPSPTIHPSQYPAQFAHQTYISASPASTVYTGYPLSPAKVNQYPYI

Serine/threonine-protein kinase PAK 6 (Homo sapiens), sequence (Q9NQU5 whole entry, looked up, the tested form may be a part): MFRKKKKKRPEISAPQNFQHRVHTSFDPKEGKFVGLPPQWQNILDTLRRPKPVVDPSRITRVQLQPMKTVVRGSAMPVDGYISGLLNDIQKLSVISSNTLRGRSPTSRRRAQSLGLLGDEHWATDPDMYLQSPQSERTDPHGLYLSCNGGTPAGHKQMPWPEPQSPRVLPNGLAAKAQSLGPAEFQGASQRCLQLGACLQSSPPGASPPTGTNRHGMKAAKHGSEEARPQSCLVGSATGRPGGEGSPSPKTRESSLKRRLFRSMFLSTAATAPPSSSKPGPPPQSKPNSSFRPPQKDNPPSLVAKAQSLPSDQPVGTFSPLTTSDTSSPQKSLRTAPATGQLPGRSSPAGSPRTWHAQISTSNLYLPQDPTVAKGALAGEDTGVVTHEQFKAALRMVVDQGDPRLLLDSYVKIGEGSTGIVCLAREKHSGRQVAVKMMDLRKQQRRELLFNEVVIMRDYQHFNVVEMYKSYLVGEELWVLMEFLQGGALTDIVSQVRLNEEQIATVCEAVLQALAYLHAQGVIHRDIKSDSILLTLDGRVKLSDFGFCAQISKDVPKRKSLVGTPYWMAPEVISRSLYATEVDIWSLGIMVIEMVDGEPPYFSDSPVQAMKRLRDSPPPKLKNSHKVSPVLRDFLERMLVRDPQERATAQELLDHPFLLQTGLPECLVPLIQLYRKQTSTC

Activity [1] [%]	Activity [2] [%]	Activity [3] [%]	Activity [4] [%]	Activity [5] [%]	Activity [6] [%]	Activity [7] [%]	IC50 [8] [nM]	Activity [9] [%]	SMILES
-27	-95	-73	-7	-20	-59	-97	5900	-79	Nc1nccc(-c2c[nH]c3ncccc23)n1 [MERIOLIN 1]
-5	-94	-86	-4	3	-45	-65	58	-99	CCc1cc(-c2c[nH]c3ncc(-c4cnn(C5CCNCC5)c4)cc23)nc(N)n1
3	-90	-63	-11	-1	-57	-93	1100	-67	CCCCc1cc(-c2c[nH]c3ncccc23)nc(N)n1
-50	-92	-94	-16	-31	-42	-80	84	-92	CCCCc1cc(-c2c[nH]c3ncc(-c4cnn(C5CCNCC5)c4)cc23)nc(N)n1
